# Experiments:
# APRI and FIB-4 scores = test: Study 202 post-hoc APRI and FIB-4 fibrosis index scores; type: in vivo, human
# Method: APRI and FIB-4 scores were calculated. Change in score category from baseline (BL) to Weeks 24 and 48 was assessed in patients with non-missing data. Correlations between changes from BL in APRI and FIB-4 scores, and MCP-1 (CCR2 ligand) and sCD14 (inflammatory biomarker) levels were evaluated.
# HIV-1 = test: Study 202 Phase 2b: virologic response (HIV-1 RNA <50 copies/mL, FDA Snapshot); type: in vivo, human; conditions: EFV + FTC/TDF
# Text: Subjects with a history of HIV-2, hepatitis B and/or C, cirrhosis of the liver or any known active or chronic active liver disease were excluded from the study.
# The primary efficacy endpoint was virologic response at Week 24, defined as HIV-1 RNA<50 copies/mL using the FDA Snapshot Algorithm.
# [1] = Study 202: fasting metabolic laboratory parameters; type: in vivo; conditions: for Fasting HDL, mean change from baseline / Fasting LDL, mean change from baseline / Fasting total cholesterol, mean change from baseline / Fasting total cholesterol/HDL ratio, mean change from baseline / Fasting triglycerides, mean change from baseline / HOMA-IR, mean change from baseline / HbA1c, mean change from baseline: EFV
# Text: All abnormalities in total cholesterol, LDL cholesterol, triglycerides, or glucose were Grade 1 or Grade 2.
# Mean baseline values and changes from baseline in HbA1c, HOMA-IR, fasting LDL, fasting HDL, fasting total cholesterol, fasting total cholesterol/HDL ratio, and fasting triglycerides are shown in Table 36.
# [2] = All CVC (N = 115), EFV (N = 28), through Week 48
smiles,measurement,setting,value
"O=C1Nc2ccc(Cl)cc2[C@@](C#CC2CC2)(C(F)(F)F)O1 [EFV, efavirenz, reference compound]",Patients in APRI category 0.5-1.5,APRI and FIB-4 scores; Baseline,4%
same,Patients in FIB-4 category <1.45,APRI and FIB-4 scores; Baseline,100%
same,Patients in APRI category <0.5,"APRI and FIB-4 scores; Baseline, CVC pooled 100/200 mg or EFV",96%
same,Patients in APRI category <0.5,APRI and FIB-4 scores; Week 24,100%
same,Patients in FIB-4 category <1.45,APRI and FIB-4 scores; Week 24,100%
same,Patients with APRI decreased 1 category from baseline,APRI and FIB-4 scores; Week 24,5%
same,Patients in APRI category <0.5,APRI and FIB-4 scores; Week 48,100%
same,Patients in FIB-4 category 1.45-3.25,APRI and FIB-4 scores; Week 48,6%
same,Patients in FIB-4 category <1.45,APRI and FIB-4 scores; Week 48,94%
same,Patients with APRI decreased 1 category from baseline,APRI and FIB-4 scores; Week 48,6%
same,Virologic success (HIV-1 RNA <50 copies/mL),HIV-1; Week 24,71%
same,Virologic success (HIV-1 RNA <50 copies/mL),HIV-1; Week 48,50%
same,"Any graded (Grade 1-4) fasting laboratory abnormality, n subjects",[1]; [2],9
same,"Fasting LDL cholesterol abnormality, any grade, n subjects",[1]; [2],6
same,"Fasting LDL cholesterol, worst Grade 1, n subjects",[1]; [2],3
same,"Fasting LDL cholesterol, worst Grade 2, n subjects",[1]; [2],3
same,"Fasting LDL cholesterol, worst Grade 3, n subjects",[1]; [2],0
same,"Fasting LDL cholesterol, worst Grade 4, n subjects",[1]; [2],0
same,"Fasting glucose (serum, high) abnormality, any grade, n subjects",[1]; [2],2
same,"Fasting glucose (serum, high), worst Grade 1, n subjects",[1]; [2],2
same,"Fasting glucose (serum, high), worst Grade 2, n subjects",[1]; [2],0
same,"Fasting glucose (serum, high), worst Grade 3, n subjects",[1]; [2],0
same,"Fasting glucose (serum, high), worst Grade 4, n subjects",[1]; [2],0
same,"Fasting laboratory abnormality, worst Grade 1, n subjects",[1]; [2],6
same,"Fasting laboratory abnormality, worst Grade 2, n subjects",[1]; [2],3
same,"Fasting laboratory abnormality, worst Grade 3, n subjects",[1]; [2],0
same,"Fasting laboratory abnormality, worst Grade 4, n subjects",[1]; [2],0
same,"Fasting total cholesterol abnormality, any grade, n subjects",[1]; [2],9
same,"Fasting total cholesterol, worst Grade 1, n subjects",[1]; [2],6
same,"Fasting total cholesterol, worst Grade 2, n subjects",[1]; [2],3
same,"Fasting total cholesterol, worst Grade 3, n subjects",[1]; [2],0
same,"Fasting total cholesterol, worst Grade 4, n subjects",[1]; [2],0
same,"Fasting triglycerides abnormality, any grade, n subjects",[1]; [2],0
same,"Fasting triglycerides, worst Grade 1, n subjects",[1]; [2],0
same,"Fasting triglycerides, worst Grade 2, n subjects",[1]; [2],0
same,"Fasting triglycerides, worst Grade 3, n subjects",[1]; [2],0
same,"Fasting triglycerides, worst Grade 4, n subjects",[1]; [2],0
same,"Fasting HDL, mean change from baseline","[1]; Week 4, All CVC",5.90 mg/dL
same,"Fasting LDL, mean change from baseline","[1]; Week 4, All CVC",8.62 mg/dL
same,"Fasting total cholesterol, mean change from baseline","[1]; Week 4, All CVC",19 mg/dL
same,"Fasting total cholesterol/HDL ratio, mean change from baseline","[1]; Week 4, All CVC",−0.07
same,"Fasting triglycerides, mean change from baseline","[1]; Week 4, All CVC",23 mg/dL
same,"HOMA-IR, mean change from baseline","[1]; Week 4, All CVC",0.30
same,"HbA1c, mean change from baseline","[1]; Week 4, All CVC",−0.01 % Hb
same,"Fasting HDL, mean change from baseline","[1]; Week 12, All CVC",9.45 mg/dL
same,"Fasting LDL, mean change from baseline","[1]; Week 12, All CVC",7.59 mg/dL
same,"Fasting total cholesterol, mean change from baseline","[1]; Week 12, All CVC",18 mg/dL
same,"Fasting total cholesterol/HDL ratio, mean change from baseline","[1]; Week 12, All CVC",−0.41
same,"Fasting triglycerides, mean change from baseline","[1]; Week 12, All CVC",3 mg/dL
same,"HOMA-IR, mean change from baseline","[1]; Week 12, All CVC",0.06
same,"HbA1c, mean change from baseline","[1]; Week 12, All CVC",−0.07 % Hb
same,"Fasting HDL, mean change from baseline","[1]; Week 24, All CVC",12.75 mg/dL
same,"Fasting LDL, mean change from baseline","[1]; Week 24, All CVC",13.40 mg/dL
same,"Fasting total cholesterol, mean change from baseline","[1]; Week 24, All CVC",24 mg/dL
same,"Fasting total cholesterol/HDL ratio, mean change from baseline","[1]; Week 24, All CVC",−0.47
same,"Fasting triglycerides, mean change from baseline","[1]; Week 24, All CVC",-10 mg/dL
same,"HOMA-IR, mean change from baseline","[1]; Week 24, All CVC",−1.27
same,"HbA1c, mean change from baseline","[1]; Week 24, All CVC",−0.01 % Hb
same,"Fasting HDL, mean change from baseline","[1]; Week 48, All CVC",11.94 mg/dL
same,"Fasting LDL, mean change from baseline","[1]; Week 48, All CVC",11.19 mg/dL
same,"Fasting total cholesterol, mean change from baseline","[1]; Week 48, All CVC",26 mg/dL
same,"Fasting total cholesterol/HDL ratio, mean change from baseline","[1]; Week 48, All CVC",−0.35
same,"Fasting triglycerides, mean change from baseline","[1]; Week 48, All CVC",14 mg/dL
same,"HOMA-IR, mean change from baseline","[1]; Week 48, All CVC",−0.12
same,"HbA1c, mean change from baseline","[1]; Week 48, All CVC",−0.08 % Hb
same,"Change in fasting cholesterol (total, LDL, HDL) during treatment",[1]; through Week 48,increases were observed
